Assays:
Settings in all cases: three weeks after treatment
Setaria viridis [1] = experiment: Pre-emergence herbicidal evaluation, SETVI; assay type: in vivo
Source text: (§1) The treated pots are then placed on greenhouse benches, watered and cared for in accordance with conventional greenhouse procedures.

Amaranthus tuberculatus [2] = experiment: Pre-emergence herbicidal evaluation, AMATA; assay type: in vivo
Source text: as §1

Echinochloa crus-galli [3] = experiment: Post-emergence herbicidal evaluation, ECHCG
Triticum aestivum [4] = experiment: Pre-emergence herbicidal evaluation, TRZAW; assay type: in vivo
Source text: as §1

Glycine max [5] = experiment: Post-emergence herbicidal evaluation, GLXMA
Lolium perenne [6] = experiment: Pre-emergence herbicidal evaluation, LOLPE; assay type: in vivo
Source text: as §1

Galium aparine = experiment: Post-emergence herbicidal evaluation, GALAP
Description: (§2) The compounds of the invention are tested for pre- and post-emergence herbicidal activity.
(§3) Each pot is examined three weeks after treatment and phytotoxicity is assessed according to the rating system set forth below.
(§4) These acetone solutions are diluted with water and the resulting formulations applied at dosage levels equivalent of about 0.4 to 0.1 kg per hectare of test compound per pot. After spraying the plants are placed on greenhouse benches and are cared for in the usual manner, commensurate with conventional greenhouse practices.

Oryza sativum [7] = experiment: Pre-emergence herbicidal evaluation, ORYSA; assay type: in vivo
Source text: as §1

Glycine max [8] = experiment: Pre-emergence herbicidal evaluation, GLXMA; assay type: in vivo
Source text: as §1

Zea mays [9] = experiment: Post-emergence herbicidal evaluation, ZEAMX
Apera spica venti [10] = experiment: Post-emergence herbicidal evaluation, APESV
Description: as §2, §3, §4

Lolium perenne [11] = experiment: Post-emergence herbicidal evaluation, LOLPE
Apera spica venti [12] = experiment: Pre-emergence herbicidal evaluation, APESV; assay type: in vivo
Source text: as §1

Setaria viridis [13] = experiment: Post-emergence herbicidal evaluation, SETVI
Description: as §2, §3, §4

Alopecurus myosuroides [14] = experiment: Post-emergence herbicidal evaluation, ALOMY
Oryza sativum [15] = experiment: Post-emergence herbicidal evaluation, ORYSA
Amaranthus tuberculatus [16] = experiment: Post-emergence herbicidal evaluation, AMATA; assay type: in vivo
Hordeum vulgare [17] = experiment: Post-emergence herbicidal evaluation, HORVW
Echinochloa crus-galli [18] = experiment: Pre-emergence herbicidal evaluation, ECHCG; assay type: in vivo
Source text: as §1

Triticum aestivum [19] = experiment: Post-emergence herbicidal evaluation, TRZAW
Description: as §3, §4

Hordeum vulgare [20] = experiment: Pre-emergence herbicidal evaluation, HORVW; assay type: in vivo
Source text: as §1

Zea mays [21] = experiment: Pre-emergence herbicidal evaluation, ZEAMX; assay type: in vivo
Source text: as §1

Alopecurus myosuroides [22] = experiment: Pre-emergence herbicidal evaluation, ALOMY; assay type: in vivo
Source text: as §1

## CC1=CC(N(C)C(=O)COc2nc3ccccc3o2)=CC(C)(C)C1 [Example 16]
Setaria viridis [1]; 0.100 kg/ha
  phytotoxicity rating SETVI: 5 (5 - Definite injury)
Setaria viridis [1]; 0.200 kg/ha
  phytotoxicity rating SETVI: 8 (8 - Approaching complete kill)
Setaria viridis [1]; 0.400 kg/ha
  phytotoxicity rating SETVI: 9 (9 - Complete kill)
Setaria viridis [1]; 0.800 kg/ha
  phytotoxicity rating SETVI: 9 (9 - Complete kill)
Amaranthus tuberculatus [2]; 0.100 kg/ha
  phytotoxicity rating AMATA: 0 (0 - No effect)
Amaranthus tuberculatus [2]; 0.200 kg/ha
  phytotoxicity rating AMATA: 3 (3 - Moderate effect)
Amaranthus tuberculatus [2]; 0.400 kg/ha
  phytotoxicity rating AMATA: 3 (3 - Moderate effect)
Amaranthus tuberculatus [2]; 0.800 kg/ha
  phytotoxicity rating AMATA: 7 (7 - Good herbicidal effect)
Echinochloa crus-galli [3]; 0.100 kg/ha
  phytotoxicity rating ECHCG: 0 (0 - No effect)
Echinochloa crus-galli [3]; 0.200 kg/ha
  phytotoxicity rating ECHCG: 0 (0 - No effect)
Echinochloa crus-galli [3]; 0.400 kg/ha
  phytotoxicity rating ECHCG: 0 (0 - No effect)
Triticum aestivum [4]; 0.100 kg/ha
  phytotoxicity rating TRZAW: 0 (0 - No effect)
Triticum aestivum [4]; 0.200 kg/ha
  phytotoxicity rating TRZAW: 0 (0 - No effect)
Triticum aestivum [4]; 0.400 kg/ha
  phytotoxicity rating TRZAW: 0 (0 - No effect)
Triticum aestivum [4]; 0.800 kg/ha
  phytotoxicity rating TRZAW: 1 (1 - Trace effect)
Glycine max [5]; 0.100 kg/ha
  phytotoxicity rating GLXMA: 2 (2 - Slight effect)
Glycine max [5]; 0.200 kg/ha
  phytotoxicity rating GLXMA: 3 (3 - Moderate effect)
Glycine max [5]; 0.400 kg/ha
  phytotoxicity rating GLXMA: 4 (4 - Injury)
Lolium perenne [6]; 0.100 kg/ha
  phytotoxicity rating LOLPE: 0 (0 - No effect)
Lolium perenne [6]; 0.200 kg/ha
  phytotoxicity rating LOLPE: 0 (0 - No effect)
Lolium perenne [6]; 0.400 kg/ha
  phytotoxicity rating LOLPE: 3 (3 - Moderate effect)
Lolium perenne [6]; 0.800 kg/ha
  phytotoxicity rating LOLPE: 8 (8 - Approaching complete kill)
Galium aparine; 0.100 kg/ha
  phytotoxicity rating GALAP: 3 (3 - Moderate effect)
Galium aparine; 0.200 kg/ha
  phytotoxicity rating GALAP: 3 (3 - Moderate effect)
Galium aparine; 0.400 kg/ha
  phytotoxicity rating GALAP: 4 (4 - Injury)
Oryza sativum [7]; 0.100 kg/ha
  phytotoxicity rating ORYSA: 0 (0 - No effect)
Oryza sativum [7]; 0.200 kg/ha
  phytotoxicity rating ORYSA: 0 (0 - No effect)
Oryza sativum [7]; 0.400 kg/ha
  phytotoxicity rating ORYSA: 2 (2 - Slight effect)
Oryza sativum [7]; 0.800 kg/ha
  phytotoxicity rating ORYSA: 5 (5 - Definite injury)
Glycine max [8]; 0.100 kg/ha
  phytotoxicity rating GLXMA: 0 (0 - No effect)
Glycine max [8]; 0.200 kg/ha
  phytotoxicity rating GLXMA: 0 (0 - No effect)
Glycine max [8]; 0.400 kg/ha
  phytotoxicity rating GLXMA: 0 (0 - No effect)
Glycine max [8]; 0.800 kg/ha
  phytotoxicity rating GLXMA: 0 (0 - No effect)
Zea mays [9]; 0.100 kg/ha
  phytotoxicity rating ZEAMX: 0 (0 - No effect)
Zea mays [9]; 0.200 kg/ha
  phytotoxicity rating ZEAMX: 0 (0 - No effect)
Zea mays [9]; 0.400 kg/ha
  phytotoxicity rating ZEAMX: 0 (0 - No effect)
Apera spica venti [10]; 0.100 kg/ha
  phytotoxicity rating APESV: 0 (0 - No effect)
Apera spica venti [10]; 0.200 kg/ha
  phytotoxicity rating APESV: 6 (6 - Herbicidal effect)
Apera spica venti [10]; 0.400 kg/ha
  phytotoxicity rating APESV: 4 (4 - Injury)
Lolium perenne [11]; 0.100 kg/ha
  phytotoxicity rating LOLPE: 4 (4 - Injury)
Lolium perenne [11]; 0.200 kg/ha
  phytotoxicity rating LOLPE: 6 (6 - Herbicidal effect)
Lolium perenne [11]; 0.400 kg/ha
  phytotoxicity rating LOLPE: 7 (7 - Good herbicidal effect)
Apera spica venti [12]; 0.200 kg/ha
  phytotoxicity rating APESV: 4 (4 - Injury)
Apera spica venti [12]; 0.400 kg/ha
  phytotoxicity rating APESV: 8 (8 - Approaching complete kill)
Apera spica venti [12]; 0.800 kg/ha
  phytotoxicity rating APESV: 9 (9 - Complete kill)
Setaria viridis [13]; 0.100 kg/ha
  phytotoxicity rating SETVI: 0 (0 - No effect)
Setaria viridis [13]; 0.200 kg/ha
  phytotoxicity rating SETVI: 0 (0 - No effect)
Setaria viridis [13]; 0.400 kg/ha
  phytotoxicity rating SETVI: 0 (0 - No effect)
Alopecurus myosuroides [14]; 0.100 kg/ha
  phytotoxicity rating ALOMY: 2 (2 - Slight effect)
Alopecurus myosuroides [14]; 0.200 kg/ha
  phytotoxicity rating ALOMY: 5 (5 - Definite injury)
Alopecurus myosuroides [14]; 0.400 kg/ha
  phytotoxicity rating ALOMY: 7 (7 - Good herbicidal effect)
Oryza sativum [15]; 0.100 kg/ha
  phytotoxicity rating ORYSA: 0 (0 - No effect)
Oryza sativum [15]; 0.200 kg/ha
  phytotoxicity rating ORYSA: 0 (0 - No effect)
Oryza sativum [15]; 0.400 kg/ha
  phytotoxicity rating ORYSA: 2 (2 - Slight effect)
Amaranthus tuberculatus [16]; 0.100 kg/ha
  phytotoxicity rating AMATA: 3 (3 - Moderate effect)
Amaranthus tuberculatus [16]; 0.400 kg/ha
  phytotoxicity rating AMATA: 3 (3 - Moderate effect)
Hordeum vulgare [17]; 0.100 kg/ha
  phytotoxicity rating HORVW: 0 (0 - No effect)
Hordeum vulgare [17]; 0.200 kg/ha
  phytotoxicity rating HORVW: 0 (0 - No effect)
Hordeum vulgare [17]; 0.400 kg/ha
  phytotoxicity rating HORVW: 2 (2 - Slight effect)
Echinochloa crus-galli [18]; 0.100 kg/ha
  phytotoxicity rating ECHCG: 5 (5 - Definite injury)
Echinochloa crus-galli [18]; 0.200 kg/ha
  phytotoxicity rating ECHCG: 6 (6 - Herbicidal effect)
Echinochloa crus-galli [18]; 0.400 kg/ha
  phytotoxicity rating ECHCG: 7 (7 - Good herbicidal effect)
Echinochloa crus-galli [18]; 0.800 kg/ha
  phytotoxicity rating ECHCG: 9 (9 - Complete kill)
Triticum aestivum [19]; 0.100 kg/ha
  phytotoxicity rating TRZAW: 0 (0 - No effect)
Triticum aestivum [19]; 0.200 kg/ha
  phytotoxicity rating TRZAW: 0 (0 - No effect)
Triticum aestivum [19]; 0.400 kg/ha
  phytotoxicity rating TRZAW: 0 (0 - No effect)
Hordeum vulgare [20]; 0.100 kg/ha
  phytotoxicity rating HORVW: 0 (0 - No effect)
Hordeum vulgare [20]; 0.200 kg/ha
  phytotoxicity rating HORVW: 0 (0 - No effect)
Hordeum vulgare [20]; 0.400 kg/ha
  phytotoxicity rating HORVW: 2 (2 - Slight effect)
Hordeum vulgare [20]; 0.800 kg/ha
  phytotoxicity rating HORVW: 3 (3 - Moderate effect)
Zea mays [21]; 0.100 kg/ha
  phytotoxicity rating ZEAMX: 0 (0 - No effect)
Zea mays [21]; 0.200 kg/ha
  phytotoxicity rating ZEAMX: 0 (0 - No effect)
Zea mays [21]; 0.400 kg/ha
  phytotoxicity rating ZEAMX: 0 (0 - No effect)
Zea mays [21]; 0.800 kg/ha
  phytotoxicity rating ZEAMX: 0 (0 - No effect)
Alopecurus myosuroides [22]; 0.100 kg/ha
  phytotoxicity rating ALOMY: 6 (6 - Herbicidal effect)
Alopecurus myosuroides [22]; 0.200 kg/ha
  phytotoxicity rating ALOMY: 8 (8 - Approaching complete kill)
Alopecurus myosuroides [22]; 0.400 kg/ha
  phytotoxicity rating ALOMY: 8 (8 - Approaching complete kill)
Alopecurus myosuroides [22]; 0.800 kg/ha
  phytotoxicity rating ALOMY: 9 (9 - Complete kill)

Reference: patent publication US6339042B1, “Herbicidal N-cyclohexadienyl heteroaryloxyacetamides” (American Cyanamid Co., priority 1999, dated 2002)
